Laboratory results reported in US11401278B2, “Macrocyclic indole derivatives” (The Broad Institute, Inc., priority 2017, dated 2022).
Where a name gives a salt, the structure may show the parent alone. Read-outs that look alike come from different tables or passages of the source.

Key:
[1] = target: MCL-1 (Homo sapiens (Human), UniProt Q07820, K194A/K197A/R201A); assay: Protein-protein interaction assay MCL-1/Noxa BH3 peptide (MCL-1 assay, TR-FRET); assay type: binding; conditions: MBP-MCL-1 / Noxa BH3 peptide, median
MCL-1, sequence (Q07820 whole entry K194A/K197A/R201A, looked up): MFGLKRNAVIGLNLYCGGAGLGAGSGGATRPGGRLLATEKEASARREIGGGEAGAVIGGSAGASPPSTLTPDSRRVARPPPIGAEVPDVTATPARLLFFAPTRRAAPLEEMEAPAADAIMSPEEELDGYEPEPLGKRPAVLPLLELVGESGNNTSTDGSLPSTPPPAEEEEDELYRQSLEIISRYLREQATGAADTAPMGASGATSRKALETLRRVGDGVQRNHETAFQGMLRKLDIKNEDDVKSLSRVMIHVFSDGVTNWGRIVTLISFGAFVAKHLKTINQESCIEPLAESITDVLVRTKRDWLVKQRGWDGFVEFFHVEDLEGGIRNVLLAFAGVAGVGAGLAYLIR
Protocol: Protein-Protein Interaction Assay: MCL-1/Noxa BH3 Peptide (MCL-1 Assay)
The dose-dependent inhibition by the compounds described in this invention of the interaction between MCL-1 and the BH3 domain of Noxa (both human) was determined using a steady state binding competition assay with time-resolved fluorescence energy transfer (TR-FRET) readout. For that purpose MCL-1 (amino acids 173-329, N-terminal fused to Maltose Binding Protein (MBP) SEQ ID 1) and a synthetic Noxa BH3-derived peptide of sequence Biotin-PEG2-PEG2-PAELEVE-Nva-ATQLRRFGDKLNFRQKLL-amide (SEQ ID 2) served as protein receptor and tracer ligand respectively. The MBP-MCL-1 was purchased from Beryllium (Bedford, Mass., USA). The expression and purification of this protein construct has been described elsewhere (DOI:10.1371/journal.pone.0125010). The Noxa BH3-derived peptide can be obtained from e.g. Biosyntan (Berlin, Germany).
In the assay 11 different concentrations of each compound (0.1 nM, 0.33 nM, 1.1 nM, 3.8 nM, 13 nM, 44 nM, 0.15 μM, 0.51 μM, 1.7 μM, 5.9 μM and 20 μM) were typically measured as duplicates in the same microtiter plate. For that, 100-fold concentrated DMSO solutions were prepared by serial dilutions (1:3.4) of a 2 mM stock solution in a clear, 384-well microtiter plate (Greiner Bio-One, Frickenhausen, Germany). From there, 50 nl were transferred in a dark test plate (Greiner Bio-One, Frickenhausen, Germany). The assay was initiated by addition of 2 μl of a 2.5-fold concentrated MBP-MCL-1 solution (usually for a 1 nM end concentration in 5 μl reaction volume) in aqueous assay buffer [50 mM Tris/HCl pH 7, 100 mM sodium chloride (NaCl), 50 mM potassium fluoride (KF), 0.005% Tween-20, 2 mM DTT, 0.1% bovine gamma globulin (BGG)] to the compounds in the assay plate. This was followed by a 10-minute incubation step at 22° C. for pre-equilibration of the putative complex between MBP-MCL-1 and the compounds. After that, 3 μl of a 1.67-fold concentrated solution (in assay buffer) consisting of Noxa BH3-derived peptide (1 nM end concentration) and TR-FRET detection reagents [1.67 nM anti-MBP-Eu cryptate and 1.67 nM streptavidin-XL665 (both from Cisbio Bioassays, Codolet, France)], were added.
The mixture was incubated in the dark for one hour at 22° C. and then overnight at 4° C. The formation of MCL-1/Noxa complexes was determined by measuring the resonance energy transfer of the anti-MBP-Eu-cryptate antibody to the streptavidin-XL665 present in the reaction. For that purpose, the fluorescence emission at 620 nm and 665 nm after excitation at 330-350 nm was measured in a TR-FRET measuring instrument, for instance a Rubystar or a Pherastar (both from BMG Lab Technologies, Offenburg, Germany) or a Viewlux (Perkin-Elmer). The ratio of the emission at 665 nm and at 622 nm was used as indicator of the amount of MCL-1/NOXA complexes present.
The resulting data (ratio) were normalized, taking 0% inhibition as the mean value of control measurements (usually 32 data points) where all reagents were included. In this case 50 nl DMSO were used instead of compounds. A 100% inhibition corresponded to the mean value of control measurements (usually 32 data points) where all reagents except MCL-1 were included. IC50 values were determined by regression analysis based on a 4 parameter equation (minimum, maximum, IC50, Hill; Y=Max+(Min−Max)/(1+(X/IC50)^HiII) using the Screener Software (Genedata).

[2] = tested on: SUDHL5; assay: Antiproliferation assay (Assay 7), SUDHL5; assay type: cell-based; conditions: CellTiter-Glo, median, read-out: Antiproli SUDHL5 [M] (median) IC50
Protocol: (§1) Assessment of the Anti-Proliferative Effect of Compounds in Different Cell Lines
(§2) The impact of compounds on the proliferation of different cell lines was assessed using the CellTiter-Glo® Luminescent Cell Viability reagent from Promega (G7573).
(§3) In parallel, cells were plated in a reference (day 0) plate for time zero determination.
(§4) Rim wells were excluded. The cells were incubated for 72 hours in a humidified incubator at 37° C. The day 0 plate was measured by adding 30 μL/well of CTG solution (CellTiter-Glo® Luminescent Cell Viability reagent, Promega G7573) to time zero wells in the reference plate followed by a 10 minutes incubation and luminescence reading at 0.1 ms. using the PHERAstar FS microplate reader (BMG Labtech).
(§5) After 72 hours incubation, the treated plates were measured in the same way as the day 0 plate mentioned above.

[3] = tested on: SUDHL5; assay: Induction of cytotoxicity (Assay 6), SUDHL5; conditions: read-out: Cytotox SUDHL5 [M] (median) IC50, CellTiter-Glo, 5 hours, SUDHL5
Protocol: Assay 6 Induction of Cytotoxicity Upon Treatment of Cells with Selected Compounds
Therefore, cytotoxicity assays were run in parallel in SUDHL5 and SUDHL10 cells.
The different cell lines were plated in culture medium (RPMI 1640 [GIBCO #22400-089] supplemented with 10% Fetal Bovine Serum) at a density of 3,300 cells in 30 μl/well in a sterile, solid black, flat bottom, polystyrene, TC-treated 384-well microplate (Corning #3571) using Multidrop Combi Reagent Dispenser. As a control, medium without cells was also added to the plate. Cells were incubated in a humidified incubator at 37° C. overnight. On the next day, the cells were treated with compounds (stock solution, 10 mM in DMSO) using the HP D300 Digital Dispenser in a concentration range of 3.3×10e-5 M (33 μM) to 5×10e-9 M (5 nM) in a single-dot curve with at least 16 dilutions and a DMSO concentration of 0.33%. Rim wells were excluded. The cells were incubated for 5 hours in a humidified incubator at 37° C. After this incubation, 30 μl of CellTiter-Glo® Luminescent Cell Viability reagent (Promega, G7573) was added to each well using the Multidrop Combi Reagent Dispenser, followed by 15 minutes incubation on a shaker at room temperature. Finally, luminescence was read at 0.1 ms, with a gain of 3000 using the PHERAstar FS microplate reader (BMG Labtech).

[4] = tested on: HMC-1-8; assay: Antiproliferation assay (Assay 7), HMC-1-8; assay type: cell-based; conditions: CellTiter-Glo, 72 hours, several values per example, read-out: Antiproli HMC-1-8 [M] IC50
Protocol: as §1, §2, §3, §4, §5

[5] = tested on: SUDHL5; assay: Induction of caspase-3/7 activity (Assay 4), SUDHL5; assay type: cell-based; conditions: caspase-3/7 induction, median
Protocol: (§6) Cellular Assays Assay 4 Induction of Caspase-3/7 Activity Upon Treatment of Cells with Selected Compounds
(§7) The BH3-domain of MCL-1 sequesters pro-apoptotic proteins, thereby inhibiting apoptosis. In contrast, MCL-1 inhibitors are expected to antagonize this effect leading to an increase in apoptosis, which can be determined by measuring the activity of caspase-3/7.
(§8) The activity of caspase-3/7 was determined in DLBCL (Diffuse large B-cell lymphoma) cell lines (SUDHL5 and SUDHL10) upon treatment with different compounds, using the Caspase-Glo® 3/7 reagent from Promega (G8092).
(§9) Rim wells were excluded. The cells were incubated for 3 hours in a humidified incubator at 37° C.
(§10) For the evaluation of the results, the background measured with “medium-only” was subtracted from all other values. […] The Bella DRC Master Sheet was used to calculate EC50s, with fixed C0=1 and CI=plateau/max induction for the reference compound.

[6] = tested on: AMO-1; assay: Antiproliferation assay (Assay 7), AMO-1; assay type: cell-based; conditions: CellTiter-Glo, several values per example, read-out: Antiproli AMO-1 [M] IC50
Protocol: as §1, §2, §3, §4, §5

[7] = tested on: SUDHL10; assay: Induction of caspase-3/7 activity (Assay 4), SUDHL10; assay type: cell-based; conditions: caspase-3/7 induction, median
Protocol: as §6, §7, §8, §9, §10

[8] = tested on: SUDHL10; assay: Induction of cytotoxicity (Assay 6), SUDHL10; conditions: read-out: Cytotox SUDHL10 [M] (median) IC50, CellTiter-Glo, 5 hours, SUDHL10
[9] = tested on: MV-4-11; assay: Antiproliferation assay (Assay 7), MV-4-11; assay type: cell-based; conditions: Homo sapiens, MV4-11, 72 h, CellTiter-Glo, several values per example, read-out: Antiproli MV-4-11 [M] IC50
Protocol: as §1, §2, §3, §4, §5

SMILES | IC50 [1] | IC50 ([2]; 72 hours) | IC50 [3] | IC50 [4] | EC50 ([5]; 3 hours) | IC50 ([6]; 72 hours) | EC50 ([7]; 3 hours) | IC50 [8] | IC50 ([2]; Homo sapiens, SU-DHL-5, 72 h) | IC50 [9] | IC50 ([3]; Homo sapiens, SU-DHL-5, 5 h) | EC50 ([5]; Homo sapiens, SU-DHL-5, 3 h) | IC50 ([6]; Homo sapiens, AMO1, 72 h) | EC50 ([7]; Homo sapiens, SU-DHL10, 3 h) | IC50 ([8]; Homo sapiens, SU-DHL10, 5 h)
CCc1c2c(nn1C)CN(CC)S(=O)(=O)CCCn1c(C(=O)O)c(CCCOc3cccc4cc(F)ccc34)c3ccc(Cl)c-2c31 (single isomer, unassigned; enantiomer 2) [Example 58, (−)-4-chloro-3,14-diethyl-7-{3-[(6-fluoronaphthalen-1-yl)oxy]propyl}-2-methyl-13,13-dioxo-10,11,12,13,14,15-hexahydro-2H-13lambda^6-pyrazolo[3′,4′:4,5][1,2,8]thiadiazacycloundecino[6,7,8-hi]indole-8-carboxylic acid N-ethylethanamine Salt (Enantiomer 2)] | 0.028 µM | 1.5e-05 M | 1.2e-05 M | 1.5e-05 M | 15 µM | > 3.3e-05 M | 32 µM |  |  |  |  |  |  |  | 
CCc1c2c(nn1C)C(N1CCOCC1)CCN(C)S(=O)(=O)CCCn1c(C(=O)O)c(CCCOc3cccc4cc(F)ccc34)c3ccc(Cl)c-2c31 (single isomer, unassigned; enantiomer 2) [Example 71, (−)-4-chloro-3-ethyl-7-{3-[(6-fluoro-1-naphthyl)oxy]propyl}-2,14-dimethyl-17-(morpholin-4-yl)-11,12,14,15,16,17-hexahydro-2H,10H-pyrazolo[3′,4′:6,7][1,2,10]thiadiazacyclotridecino[8,9,10-hi]indole-8-carboxylic acid 13,13-dioxide trifluoroacetate salt (Enantiomer 2)] | 0.0008 µM | 1.3e-07 M | 1e-07 M | 3.2e-06 M | 0.071 µM |  | 0.14 µM | 1.5e-07 M |  |  |  |  |  |  | 
Cc1c2c(nn1C)CN(C)S(=O)(=O)CCCn1c(C(=O)O)c(CCCOc3cccc4ccccc34)c3cccc-2c31 (single isomer, unassigned; enantiomer 1) [Example 11, (+)-2,3,14-Trimethyl-7-[3-(1-naphthyloxy)propyl]-11,12,14,15-tetrahydro-2H,10H-pyrazolo[3′,4′:4,5][1,2,8]thiadiazacycloundecino[6,7,8-hi]indole-8-carboxylic acid 13,13-dioxide-N-ethylethanamine Salt (Enantiomer 1)] |  |  | 1.6e-06 M |  |  |  |  | 3.7e-06 M |  |  |  |  |  |  | 
CCc1c2c(nn1C)CN(C)S(=O)(=O)CCCn1c(C(=O)O)c(CCCOc3cccc4cc(F)ccc34)c3ccc(Cl)c-2c31 (racemic) [Example 19, (rac)-13-Chloro-12-ethyl-1-(3-((6-fluoronaphthalen-1-yl)oxy)propyl)-8,11-dimethyl-5,6,9,11-tetrahydro-4H,8H-pyrazolo[3′,4′:4,5][1]thia[2,8]diazacycloundecino[6,7,8-hi]indole-2-carboxylic acid 7,7-dioxide] | 0.0018 µM |  |  |  |  |  |  |  | 3.1e-07 M | 8.39e-07 M | 4.6e-07 M | 0.42 µM | 1.5e-06 M | 0.61 µM | 8.5e-07 M
CCc1c2c(nn1C)C(N1CCOCC1)CCN(C)S(=O)(=O)CCCn1c(C(=O)O)c(CCCOc3cccc4cc(F)ccc34)c3ccc(Cl)c-2c31 (single isomer, unassigned; enantiomer 1) [Example 70, (+)-4-chloro-3-ethyl-7-{3-[(6-fluoro-1-naphthyl)oxy]propyl}-2,14-dimethyl-17-(morpholin-4-yl)-11,12,14,15,16,17-hexahydro-2H,10H-pyrazolo[3′,4′:6,7][1,2,10]thiadiazacyclotridecino[8,9,10-hi]indole-8-carboxylic acid 13,13-dioxide trifluoroacetate salt (Enantiomer 1)] | 0.086 µM | 4e-06 M | 2.6e-06 M | 1.5e-05 M | 2.6 µM | 7.3e-06 M | 4.4 µM | 4.7e-06 M |  |  |  |  |  |  | 
CCc1c2c(nn1C)C(N1CCOCC1)CCN(C)S(=O)(=O)CCCn1c(C(=O)O)c(CCCOc3cccc4cc(F)ccc34)c3ccc(Cl)c-2c31 (racemic) [Example 69, (rac)-15-chloro-14-ethyl-1-(3-((6-fluoronaphthalen-1-yl)oxy)propyl)-8,13-dimethyl-11-(rac)-morpholino-5,6,9,10,11,13-hexahydro-4H,8H-pyrazolo[3′,4′:6,7][1]thia[2,10]diazacyclotridecino[8,9,10-hi]indole-2-carboxylic acid 7,7-dioxide (Mixture of Stereoisomers)] | 0.0015 µM |  |  |  |  |  |  |  |  |  | 3.1e-07 M | 0.25 µM |  | 0.65 µM | 1.3e-06 M
Cc1c2c(nn1C)CN(C)S(=O)(=O)CCCn1c(C(=O)O)c(CCCOc3cccc4ccccc34)c3cccc-2c31 (single isomer, unassigned; enantiomer 2) [Example 12, (−)-2,3,14-Trimethyl-7-[3-(1-naphthyloxy)propyl]-11,12,14,15-tetrahydro-2H,10H-pyrazolo[3′,4′:4,5][1,2,8]thiadiazacycloundecino[6,7,8-hi]indole-8-carboxylic acid 13,13-dioxide-N-ethylethanamine Salt (Enantiomer 2)] |  |  | 2.7e-05 M |  |  |  |  | 2.7e-05 M |  |  |  |  |  |  | 
